Ten molecules from ChEMBL document CHEMBL1126858, “Synthesis of (R,S)-trans-8-hydroxy-2-[N-n-propyl-N-(3'-iodo-2'-propenyl)amino]tetral in (trans-8-OH-PIPAT): a new 5-HT1A receptor ligand” (J Med Chem, 1993) can be followed below.

Data set [1] has as its target T1, 5-hydroxytryptamine receptor 1A (Rattus norvegicus, UniProt P19327).
T1 sequence (P19327 whole entry): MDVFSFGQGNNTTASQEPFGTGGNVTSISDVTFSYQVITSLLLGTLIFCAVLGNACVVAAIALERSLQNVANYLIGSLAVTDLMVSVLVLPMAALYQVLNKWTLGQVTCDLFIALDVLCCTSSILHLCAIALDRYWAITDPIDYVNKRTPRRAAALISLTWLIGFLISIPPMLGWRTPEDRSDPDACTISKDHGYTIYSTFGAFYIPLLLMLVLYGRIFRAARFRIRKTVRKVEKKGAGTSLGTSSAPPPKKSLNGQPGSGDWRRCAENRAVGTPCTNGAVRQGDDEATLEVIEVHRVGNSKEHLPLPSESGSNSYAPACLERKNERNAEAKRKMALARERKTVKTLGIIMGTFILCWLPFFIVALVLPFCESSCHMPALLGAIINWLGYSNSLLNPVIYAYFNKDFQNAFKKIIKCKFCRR
In words: Binding affinity towards 5-hydroxytryptamine 1A receptor by the displacement of [125I]trans-8-OH-PIPAT in membrane homogenates of hippocampal tissue of rat brain. It is filed as tissue-based, Hippocampus.

Data set [2] can be described thus: Hill coefficient of the compound. Type of data set: ADME.
In another data set the target is D(2) dopamine receptor (Homo sapiens, UniProt P14416). Description: Inhibitory activity against [125I]- NCQ298 binding to dopamine receptor D2 in Sf 9 cells. Type of data set: cell-based.
Chain of D(2) dopamine receptor (P14416 whole entry): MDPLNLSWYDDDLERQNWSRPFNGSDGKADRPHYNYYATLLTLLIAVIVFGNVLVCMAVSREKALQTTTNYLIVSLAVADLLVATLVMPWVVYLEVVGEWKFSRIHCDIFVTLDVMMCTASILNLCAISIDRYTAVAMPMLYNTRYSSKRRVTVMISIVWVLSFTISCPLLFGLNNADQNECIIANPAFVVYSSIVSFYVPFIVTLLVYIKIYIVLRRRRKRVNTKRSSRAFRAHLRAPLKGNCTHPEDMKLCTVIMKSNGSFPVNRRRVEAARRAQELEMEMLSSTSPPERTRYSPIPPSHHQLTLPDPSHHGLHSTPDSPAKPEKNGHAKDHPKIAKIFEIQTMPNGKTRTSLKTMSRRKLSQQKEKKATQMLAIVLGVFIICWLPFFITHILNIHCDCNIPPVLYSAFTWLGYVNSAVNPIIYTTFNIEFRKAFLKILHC
Another data set addresses D(3) dopamine receptor (Rattus norvegicus, UniProt P19020). In words: Inhibitory activity against [125I]- NCQ298 binding to dopamine receptor D3 in Sf 9 cells. Type of data set: cell-based.
The species entered for a further data set is Rattus norvegicus. In words: Inhibitory activity against (125I)-(R,S)-trans-8-OH-PIPAT binding to the rat hippocampal homogenate. Type of data set: functional, Hippocampus.

Chain of D(3) dopamine receptor (P19020 whole entry): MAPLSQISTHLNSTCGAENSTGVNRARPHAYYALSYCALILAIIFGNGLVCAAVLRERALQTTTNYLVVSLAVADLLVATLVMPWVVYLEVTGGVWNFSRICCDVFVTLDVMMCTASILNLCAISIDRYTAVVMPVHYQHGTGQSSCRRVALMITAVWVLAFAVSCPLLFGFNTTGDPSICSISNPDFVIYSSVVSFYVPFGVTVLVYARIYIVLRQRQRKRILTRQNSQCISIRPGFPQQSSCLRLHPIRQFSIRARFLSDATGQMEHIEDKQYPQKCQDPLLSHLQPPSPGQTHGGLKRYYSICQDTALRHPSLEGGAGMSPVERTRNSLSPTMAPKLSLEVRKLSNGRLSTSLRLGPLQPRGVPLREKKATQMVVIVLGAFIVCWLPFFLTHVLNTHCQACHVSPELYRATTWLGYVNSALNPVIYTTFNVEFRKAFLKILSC

Usually Ki stands for the dissociation constant of the complex between target and ligand, obtained from inhibition or displacement. In the case of `COc1cccc(OC)c1OCCNCC1COc2ccccc2O1` (configuration not stated), in data set [1], the affinity, expressed as Ki, was 2.68 nM. This lies in the single-digit nanomolar range.

By Hill coefficient is commonly meant the slope factor of the fitted curve. `CCCN(C/C=C/I)C1CCc2ccc(O)cc2C1` (racemic): in data set [2], the Hill coefficient is on record as 0.9.

The molecule `CCCN(C/C=C/I)C1CCc2cccc(O)c2C1` (racemic) registered a Hill coefficient in data set [2] of 0.85. For the same molecule, the Ki was determined as 1070 nM at D(2) dopamine receptor, 125 nM on D(3) dopamine receptor and 0.3 nM in data set [1].

Regarding `CCCN(CCC)C1CCc2ccc(O)cc2C1` (racemic), the Hill coefficient in data set [2] is given as 0.82. In data set [1], this molecule yielded a Ki of 72.7 nM.

With `CCCN(CCC)C1CCc2cccc(O)c2C1` (racemic) [8-OH-DPAT], the Ki in the data set filed under Rattus norvegicus was 0.91 nM; on D(3) dopamine receptor it was 251 nM. Also, the Hill coefficient in data set [2] amounted to 0.83.

Consider `CC(C)NCC(O)COc1cccc2ccccc12` (racemic) [PROPRANOLOL], for which, in data set [2], the Hill coefficient was determined as 0.99.

Turning to `NCCc1ccc(O)c(O)c1` [DOPAMINE], in data set [1], the Ki was greater than 10000 nM.

The molecule `O=C(c1ccc(F)cc1)C1CCN(CCn2c(=O)[nH]c3ccccc3c2=O)CC1` [KETANSERIN] yielded a Hill coefficient in data set [2] of 1.04.

`NCCc1c[nH]c2ccc(O)cc12` [SEROTONIN] gave a Hill coefficient in data set [2] of 1.04.

On to `O=C(CCCN1CCC2(CC1)C(=O)NCN2c1ccccc1)c1ccc(F)cc1` [SPIPERONE], for which, in data set [2], the Hill coefficient is recorded as 0.86. Also, the Ki in data set [1] came out at 602 nM.
